Among the data in patent publication US12344610B2, “APOL1 inhibitors and methods of use” (Maze Therapeutics, Inc., priority 2022, dated 2025) are EC50 values, retold here.

pEC50: −log10 of the molar value.

Common to all, as to format: cell-based
The subject of experiment [1] is Trypanosoma brucei Lister 427 VSG221 with APOL1 G0 recombinant protein. Nature of the experiment: APOL1 G0 trypanosome cell rescue assay (Example B5). Conditions: Trypanosoma brucei, 20 h, read-out: APOL1 G0 Trypanosome Rescue EC50, Trypanosoma brucei Lister 427 VSG221 with APOL1 G0 recombinant protein, 20 hours, CellTiter-Glo; geometric mean of at least 2 assay runs; † = single assay run. In short, it runs like this:
(§1)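 Luminescent ATP read-out (CellTiter-Glo) of trypanosome viability after 20 h at 37° C. Bloodstream T. brucei Lister 427 VSG221, 250/well in modified HMI-9, were exposed to recombinant mature APOL1 (aa 28-398) from a 2 μg/mL addition, plus compound in 11-point 2-fold series.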
For orientation: Cellular ATP, detected with luciferase, serves as a proxy for viable cell number.

Experiment [2] concerns Trypanosoma brucei Lister 427 VSG221 with APOL1 G1 recombinant protein. The experiment can be described thus: APOL1 G1 trypanosome cell rescue assay (Example B5). Conditions: Trypanosoma brucei, 20 h, read-out: APOL1 G1 Trypanosome Rescue EC50, Trypanosoma brucei Lister 427 VSG221 with APOL1 G1 recombinant protein, 20 hours, CellTiter-Glo; geometric mean of at least 2 assay runs; † = single assay run. In short, it runs like this:
as §1

For experiment [3], the system named is Trypanosoma brucei Lister 427 VSG221 with APOL1 G2 recombinant protein. The experiment can be described thus: APOL1 G2 trypanosome cell rescue assay (Example B5). The note with it: Trypanosoma brucei, 20 h, read-out: APOL1 G2 Trypanosome Rescue EC50, Trypanosoma brucei Lister 427 VSG221 with APOL1 G2 recombinant protein, 20 hours, CellTiter-Glo; geometric mean of at least 2 assay runs; † = single assay run. In short, it runs like this:
as §1

For experiment [4], the system named is HEK293 clonal cell line overexpressing APOL1 G1. Nature of the experiment: APOL1 G1 HEK293 cell rescue assay (Example B3). The note with it: Homo sapiens, HEK293, HEK293 clonal line overexpressing APOL1 G1; geometric mean of at least 2 runs; † = single run; ¥ = concentration at 50% rescue estimated (no sigmoidal curve). In short, it runs like this:
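Rescue of cell death caused by APOL1 G1 overexpression was measured in a clonal HEK293 line. Compounds were tested in duplicate on one plate, and EC50s were geometric means across at least two runs on different days. Some values are estimated 50%-rescue concentrations where curve fitting failed.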

Turning to `Cn1ncc2cc(OCCN3CCC4(CC3)C(=O)Nc3ccc(Cl)cc34)ccc21` [Compound 68, 5-chloro-1′-{2-[(1-methyl-1H-indazol-5-yl)oxy]ethyl}-1,2-dihydrospiro[indole-3,4′-piperidin]-2-one], the pEC50 (as a rule, −log10 of the EC50, conventionally taken in molar units) in experiment [1] is 6.45; in experiment [2], 6.36; in experiment [3] it was 6.94; in experiment [4] it was 6.43.

As for `CS(=O)(=O)c1ccc(OCCN2CCC3(CC2)C(=O)Nc2ccc(Cl)cc23)cc1` [Compound 69, 5-chloro-1′-[2-(4-methanesulfonylphenoxy)ethyl]-1,2-dihydrospiro[indole-3,4′-piperidin]-2-one], the pEC50 is 6.82 in experiment [1], 6.74 in experiment [2], 7.33 in experiment [3] and 6.51 in experiment [4].

As to `Cn1ncc2cc(OCCN3CCC4(CC3)C(=O)Nc3ccccc34)ccc21` [Compound 70, 1′-{2-[(1-methyl-1H-indazol-5-yl)oxy]ethyl}-1,2-dihydrospiro[indole-3,4′-piperidin]-2-one], the pEC50 in experiment [1] was under 5.40; in experiment [2] it was under 5.40; in experiment [3] it was 6.04; in experiment [4], under 5.60.

On to `CS(=O)(=O)c1ccc(OCCN2CCC3(CC2)C(=O)Nc2ccc(C#N)cc23)cc1` [Compound 71, 1′-[2-(4-methanesulfonylphenoxy)ethyl]-2-oxo-1,2-dihydrospiro[indole-3,4′-piperidine]-5-carbonitrile], for which the pEC50 in experiment [1] was 6.09; in experiment [2], 5.87; in experiment [3], 6.69; in experiment [4], 5.87.

Take `CS(=O)(=O)c1ccc(OCCN2CCC3(CC2)C(=O)Nc2ccc(Br)cc23)cc1` [Compound 72, 5-bromo-1′-[2-(4-methanesulfonylphenoxy)ethyl]-1,2-dihydrospiro[indole-3,4′-piperidin]-2-one]: the pEC50 in experiment [1] is 6.89; in experiment [2] it was 6.75; in experiment [3], 7.34; in experiment [4], 6.79.

Regarding `CN(c1ccc(OCCN2CCC3(CC2)C(=O)Nc2ccc(C#N)cc23)cc1)S(C)(=O)=O` [Compound 75, N-[4-(2-{5-cyano-2-oxo-1,2-dihydrospiro[indole-3,4′-piperidin]-1′-yl}ethoxy)phenyl]-N-methylmethanesulfonamide], the pEC50 is 6.42 in experiment [1], 6.24 in experiment [2], 6.84 in experiment [3] and 6.39 in experiment [4].

In the case of `CN(c1ccc(OCCN2CCC3(CC2)C(=O)Nc2ccc(Cl)cc23)cc1)S(C)(=O)=O` [Compound 76, N-[4-(2-{5-chloro-2-oxo-1,2-dihydrospiro[indole-3,4′-piperidin]-1′-yl}ethoxy)phenyl]-N-methylmethanesulfonamide], the pEC50 is 6.97 in experiment [1], 6.90 in experiment [2], 7.45 in experiment [3] and 6.72 in experiment [4].

Regarding `CS(C)(=O)=Nc1ccc(OCCN2CCC3(CC2)C(=O)Nc2ccc(C#N)cc23)cc1` [Compound 77, 1′-[2-(4-{[dimethyl(oxo)-λ^6-sulfanylidene]amino}phenoxy)ethyl]-2-oxo-1,2-dihydrospiro[indole-3,4′-piperidine]-5-carbonitrile], the pEC50 in experiment [1] was under 5.40; in experiment [2] it was under 5.40; in experiment [3], 5.84; in experiment [4] it was under 5.32.

Regarding `CN1C(=O)CCc2cc(OCCN3CCC4(CC3)C(=O)Nc3ccc(Cl)cc34)cnc21` [Compound 78, 5-chloro-1′-{2-[(8-methyl-7-oxo-5,6,7,8-tetrahydro-1,8-naphthyridin-3-yl)oxy]ethyl}-1,2-dihydrospiro[indole-3,4′-piperidin]-2-one], the pEC50 was 7.02 in experiment [1], 7.01 in experiment [2], 7.49 in experiment [3] and 6.89 in experiment [4].

As to `CN1C(=O)CCc2cc(OCCN3CCC4(CC3)C(=O)Nc3ccc(C#N)cc34)cnc21` [Compound 79, 1′-{2-[(8-methyl-7-oxo-5,6,7,8-tetrahydro-1,8-naphthyridin-3-yl)oxy]ethyl}-2-oxo-1,2-dihydrospiro[indole-3,4′-piperidine]-5-carbonitrile], the pEC50 is 6.07 in experiment [1], 6.02 in experiment [2], 6.53 in experiment [3] and 6.27 in experiment [4].

Take `CC(C)[C@]1(O)C[C@@H](N2C(=O)CCc3cc(OCCN4CCC5(CC4)C(=O)Nc4ccc(Cl)cc45)cnc32)C1` [Compound 317, 5-chloro-1′-[2-({7-oxo-8-[(cis)-3-hydroxy-3-(propan-2-yl)cyclobutyl]-5,6,7,8-tetrahydro-1,8-naphthyridin-3-yl}oxy)ethyl]-1,2-dihydrospiro[indole-3,4′-piperidin]-2-one]: the pEC50 was 7.48 in experiment [1], 7.47 in experiment [2], 7.94 in experiment [3] and 7.34 in experiment [4].

`C[C@]1(O)C[C@@H](n2c(=O)ccc3cc(OCCN4CCC5(CC4)C(=O)Nc4ccc(Cl)cc45)cnc32)C1` [Compound 323, 5-chloro-1′-[2-({7-oxo-8-[(cis)-3-hydroxy-3-methylcyclobutyl]-7,8-dihydro-1,8-naphthyridin-3-yl}oxy)ethyl]-1,2-dihydrospiro[indole-3,4′-piperidin]-2-one]: the pEC50 in experiment [1] was 7.49; in experiment [2], 7.44; in experiment [3], 7.93; in experiment [4], 7.44.

Regarding `C[C@]1(O)C[C@@H](n2c(=O)ccc3cc(OCCN4CCC5(CC4)C(=O)Nc4ccc(C(F)F)cc45)cnc32)C1` [Compound 324, 5-(difluoromethyl)-1′-[2-({7-oxo-8-[(cis)-3-hydroxy-3-methylcyclobutyl]-7,8-dihydro-1,8-naphthyridin-3-yl}oxy)ethyl]-1,2-dihydrospiro[indole-3,4′-piperidin]-2-one], the pEC50 in experiment [1] was 7.54; in experiment [2], 7.46; in experiment [3] it was 8.08; in experiment [4], 7.39.

Turning to `O=C1CCc2cc(OCCN3CCC4(CC3)C(=O)Nc3ccc(Cl)cc34)cnc2N1C1CC(CO)C1` (stereo not shown) [Compound 326, 5-chloro-1′-[2-({8-[3-(hydroxymethyl)cyclobutyl]-7-oxo-5,6,7,8-tetrahydro-1,8-naphthyridin-3-yl}oxy)ethyl]-1,2-dihydrospiro[indole-3,4′-piperidin]-2-one], the pEC50 in experiment [1] was 7.05; in experiment [2], 7.03; in experiment [3], 7.49; in experiment [4] it was 6.98.

For `CC1(O)CC(CN2C(=O)CCc3cc(OCCN4CCC5(CC4)C(=O)Nc4ccc(Cl)cc45)cnc32)C1` (stereo not shown) [Compound 327, 5-chloro-1′-[2-({8-[(3-hydroxy-3-methylcyclobutyl)methyl]-7-oxo-5,6,7,8-tetrahydro-1,8-naphthyridin-3-yl}oxy)ethyl]-1,2-dihydrospiro[indole-3,4′-piperidin]-2-one], the pEC50 in experiment [1] was 7.40; in experiment [2], 7.33; in experiment [3], 7.87; in experiment [4] it was 7.07.

As to `C[C@]1(O)C[C@@H](n2c(=O)ccc3cc(OCCN4CCC5(CC4)C(=O)Nc4ccc(OC(F)F)cc45)cnc32)C1` [Compound 328, 5-(difluoromethoxy)-1′-[2-({7-oxo-8-[(cis)-3-hydroxy-3-methylcyclobutyl]-7,8-dihydro-1,8-naphthyridin-3-yl}oxy)ethyl]-1,2-dihydrospiro[indole-3,4′-piperidin]-2-one], the pEC50 is 7.10 in experiment [1], 7.04 in experiment [2], 7.62 in experiment [3] and 7.01 in experiment [4].

As for `O=C1Nc2ccc(Cl)cc2C12CCN(CCOc1cnc(C3(CO)CC3)nc1)CC2` [Compound 333, 5-chloro-1′-[2-({2-[1-(hydroxymethyl)cyclopropyl]pyrimidin-5-yl}oxy)ethyl]-1,2-dihydrospiro[indole-3,4′-piperidin]-2-one], the pEC50 in experiment [1] is 6.82; in experiment [2], 6.69; in experiment [3], 7.13; in experiment [4] it was 7.01.

As to `CP(C)(=O)C1(c2ccc(OCCN3CCC4(CC3)C(=O)Nc3ccc(Cl)cc34)cc2)CC1` [Compound 343, 5-chloro-1′-(2-{4-[1-(dimethylphosphoryl)cyclopropyl]phenoxy}ethyl)-1,2-dihydrospiro[indole-3,4′-piperidin]-2-one], the negative-log EC50 (pEC50) in experiment [1] is 6.76; in experiment [2] it was 6.69; in experiment [3], 7.19; in experiment [4], 6.37.

For `C[C@]1(O)C[C@@H](N2C(=O)Cc3cc(OCCN4CCC5(CC4)C(=O)Nc4ccc(Cl)cc45)cnc32)C1` [Compound 345, 5-chloro-1′-[2-({2-oxo-1-[(cis)-3-hydroxy-3-methylcyclobutyl]-1H,2H,3H-pyrrolo[2,3-b]pyridin-5-yl}oxy)ethyl]-1,2-dihydrospiro[indole-3,4′-piperidin]-2-one], the pEC50 in experiment [1] is 6.79; in experiment [2] it was 6.62; in experiment [3] it was 7.10; in experiment [4] it was 7.10.
